{"source": "patent US11117912B1", "about": "“Platinum(II) complexes containing dicyclopentadiene and dithiocarbamate as anticancer agents” (King Fahd University of Petroleum and Minerals, priority 2020, dated 2021)", "key": {"[1]": {"test_system": "mice", "test": "Acute kidney toxicity study", "text": "The mice were separated into three groups ((I), (II), and (III)) with four animals per each cage. Group (I) was served as normal control group, which received only vehicle (0.1 volume % DMSO). […] Six hours prior to the experiment, no food and water were given. […] On the day three, the animals were sacrificed by the overdose of xylazine and ketamine anesthesia. Blood samples were collected for Blood Urea Nitrogen (BUN) and serum creatinine (CRE2) measurements. All mice were allowed one week to acclimatize prior to the experiments (five animals per cage), under standard environmental conditions (12 h light-dark cycle). The animal studies were performed according to the king Saud University ethical committee.\nKidney biochemical markers, BUN and CRE2, were used for nephrotoxicity study."}, "[2]": {"test_system": "A549 cells", "test": "xCelligence real-time cell analysis (RTCA) cytotoxicity assay, A549", "format": "cell-based, human", "description": "(§1) The A549 and HeLa cell lines were cultured directly in DMEM (Dulbecco's Modified Eagle Medium), and then supplemented with 10% fetal bovine serum (FBS) and 1% streptomycin/penicillin. Then, the cancer cell samples were kept in a humidified incubator at 37° C. with 5% CO2.\n(§2) The cytotoxicity of complexes was measured using xCelligence RTCA DP system (ACEA Biosciences, San Diego, Calif., USA). Briefly, the instrument was positioned in a humidified incubator at 37° C. with 5% CO2. The cytotoxicity experiments were conducted using modified 16-well plate (E-plate) with gold-microelectrodes attached at the base of the wells for the impedance-based attachment detection, cell distribution, and proliferation. A 50 μL of cell-free growth DMEM with 10% FBS was added to the wells. Then, the system was connected to measure the background impedance for each well for 30 min. A549 and HeLa cells were harvested using 0.05% Trypsin-EDTA (ethylenediaminetetraacetic acid), and then counted using LUNA automated cell counter (Logos Biosystem, Seoul, South Korea). 50 μL of the cell suspension was then added directly to each well containing 50 μL of cell-free growth DMEM with 10% FBS—Final to reach cell density of 5×10^3. The plates were left at room temperature for about 30 minutes and then inserted to xCelligence RTCA DP device. The xCelligence RTCA system software v.2.0 automatically monitored the impedance value of individual well. These values are expressed as CI (Cell Index) every 15 minutes. […] Then, cells were real time-monitored for 72 hours. All tested compounds were dissolved in DMSO, while cisplatin in normal saline solution. The final concentration of DMSO was less than 0.1% in each well. For negative control, 0.1% DMSO solution was used. Then IC50 values for all compounds at 24 hours and 72 hours were calculated using RTCA software v.2.0.\n(§3) For all impedance profiles, the sigmoidal dose-response curves (FIGS. 2A-D) were obtained, and IC50 values were calculated (see Table 4). The calculations were based upon the CI, which is a relative and dimensionless value representing the impedance change divided by the background value, and thus reflects the overall number of cells and the quality of their attachment [D. Kho, C. MacDonald, R. Johnson, C. P. Unsworth, S. J. O'Carroll, E. du Mez, C. E. Angel, E. S. Graham. […] Biosensors 5 (2015) 199-222, incorporated herein by reference in its entirety]. The CI can change as a function of time, resulting in time-dependent and dose-dependent impedance profiles during an experiment [D. Kho, C. MacDonald, R. Johnson, C. P. Unsworth, S. J. O'Carroll, E. du Mez, C. E. Angel, E. S. Graham. […] Biosensors 5 (2015) 199-222, incorporated herein by reference in its entirety]."}, "[3]": {"test_system": "HeLa cells", "test": "Lactate dehydrogenase (LDH) release assay, HeLa", "format": "cell-based, human", "details": "72 hours", "description": "(§4) The release of lactate dehydrogenase (LDH) of A549 and HeLa cells in response to the cytotoxic effect of complexes 1 and 2 was measured using the LDH cytotoxic kit protocol (Dojindo, japan). The A549 and HeLa cells were plated into 96-well plate at 5×10^5 density for overnight. The cells were treated with complexes (1 and 2) at concentrations of IC25 (0.9 μM), IC50 (1.8 […]), and IC100 (3.6 μM) in triplicate for about 72 hours. In the day of reading, 10 μL of the Lysis Buffer was added to each well of the high control. The plate was incubated at 37° C. in CO2 incubator for 30 minutes. Then, 100 μL of the Working Solution was added to each well and incubated at room temperature for 30 minutes. Then, 50 μL of the Stop Solution was added to each well before measuring the absorbance at 490 nm using Mithras 943 micro-plate reader (Berthold Tech, Wildbad, Germany). The high control (DMSO+Cells suspension+lysis buffer) and low control (DMSO+cell suspension) were used to determine the percentage of fold changes in LDH according to the following equation (I). % in LDH changes=(Low control−Test)/(Low control−High control)×100 (I)\n(§5) The release of lactate dehydrogenase (LDH) directly into the culture medium is an indication of loss of membrane integrity of a cell due to necrosis or apoptosis. Therefore, the LDH activity in the medium can be used as an indicator for cell membrane integrity, and thus for measuring cytotoxicity. […] The cytotoxic effect of complexes 1 and 2 was evaluated by the release of lactate dehydrogenase (LDH) on treated cells (A549 and HeLa). The cells were treated with the complexes at concentrations of 0.9 μM, 1.8 μM, and 3.6 μM, respectively, for 72 hours."}, "[4]": {"test_system": "A549 cells", "test": "Lactate dehydrogenase (LDH) release assay, A549", "format": "cell-based, human", "details": "72 hours", "description": "as §4, §5"}, "[5]": {"test_system": "HeLa cells", "test": "xCelligence real-time cell analysis (RTCA) cytotoxicity assay, HeLa", "format": "cell-based, human", "description": "as §1, §2, §3"}, "[6]": {"test_system": "HeLa cells", "test": "Wound healing assay (cell migration)", "format": "cell-based, human", "details": "for cells migrated, % of the cell-free area (scratch closure): DMSO control approximately 73%", "description": "The Culture-Insert 2 Well (ibidi Gmbh, Germany) was placed into micro-plate 24. 70 μL of 5×10^5 of HeLa cells was seeded into the culture-insert. The seeded cells were incubated for 24 hours under a specific condition (37° C., 5% CO2) to form monolayer cells. After 24 hours of the incubation, the culture-inserts were removed and the cells were gently washed with PBS to remove cell debris and detached cells. The cells were then treated with the cell culture mediums containing complex 1 at specific concentrations (1, 3, 10, 30 μM) and containing 0.1% DMSO as control. All assays were conducted in duplicates. In order to analyze the migration capacity, images of the cells were taken at 0 hours, 6 hours, and 12 hours using Optika microscope, Italy. The gap closure was determined using a web-based quantitative image solution (http://www.metavilabs.com/metavi2/index.html)\nCell migration is essential in the development and maintenance of multicellular organism. It plays a central role in tissue formation during embryonic development, organ formation, immune responses, and most importantly (as in this experiment) in wound healing. Wound healing assay is a standard in vitro technique to determine collective cell migration in two dimensions. In this assay, an insert is used to create a cell-free gap in confluent monolayer cells. The wound healing assay is initiated by removing the insert. The cell-free gap is then exposed to the cell culture medium to induce the cells to migrate into the gap until new cell-to-cell contacts are established.\nThe wound healing images were recorded at three different time intervals using microscope to assess the directional collective migration of the cells. The rate of wound healing was determined by measuring the change in the gap size of the cell-free area after treatment with various concentrations of complex 1 recorded over specific time-intervals (e.g., 0 hour, 6 hours, and 12 hours). The gap was measured for each frame in the wound healing and plotted as a function of time to determine the cell migration rate. The effect of varying concentration of complex 1 (1, […], 10, 30 μM) and 0.1% of DMSO (control cells) against HeLa cell migration rate was studied. […] Meanwhile, the cells treated with four different concentrations of complex 1 (1, 3, 10, 30 μM) migrated approximately 57%, 54%, 49%, and 28%, respectively. […] Further molecular studies are required to understand the mechanism behind the inhibition of cell migration."}, "[7]": {"details": "equimolar single doses of 25 mg/kg, 72 hours"}}}
{"smiles": "C1=CC2C3C=CC(C3)C2C1.CN(C)C(=S)[S][Pt+].F[P-](F)(F)(F)(F)F", "note": "(centres unmarked) [Complex 1]", "values": [{"measurement": "Blood Urea Nitrogen (BUN) level in Plasma", "setting": "[1]; 72 h after single dose, 25 mg/kg cisplatin or equimolar complex 1, CTR 6.7 ± 0.1", "value": "6.06 ± 0.08"}, {"measurement": "Creatinine (CRE2) level in Plasma", "setting": "[1]; 72 h after single dose, 25 mg/kg cisplatin or equimolar complex 1, CTR 17.4 ± 0.58", "value": "15.8 ± 0.45"}, {"measurement": "BUN and CRE2 levels in response to the complex (in words)", "setting": "[1]; 72 hours", "value": "control and normal"}, {"measurement": "physical or abnormal changes", "setting": "[1]; [7]", "value": "No physical or abnormal changes"}, {"measurement": "survival of the treatment period", "setting": "[1]; [7]", "value": "all animals survived"}, {"measurement": "acute kidney toxicity compared to cisplatin", "setting": "[1]; nephrotoxicity tests", "value": "less toxic compared to cisplatin"}, {"measurement": "IC50", "setting": "[2]; A549, 24 hours", "value": 2.92, "unit": "µM"}, {"measurement": "IC50", "setting": "[2]; A549, 72 hours", "value": 1.74, "unit": "µM"}, {"measurement": "Percent (%) release of LDH", "setting": "[3]; 0.9 μM", "value": "60.16 ± 0.02", "unit": "%"}, {"measurement": "Percent (%) release of LDH", "setting": "[3]; 1.8 μM", "value": "73.07 ± 0.03", "unit": "%"}, {"measurement": "Percent (%) release of LDH", "setting": "[3]; 3.6 μM", "value": "95.57 ± 0.02", "unit": "%"}, {"measurement": "Percent (%) release of LDH", "setting": "[4]; A549, 0.9 μM", "value": "31.93 ± 0.01", "unit": "%"}, {"measurement": "Percent (%) release of LDH", "setting": "[4]; A549, 1.8 μM", "value": "43.33 ± 0.02", "unit": "%"}, {"measurement": "Percent (%) release of LDH", "setting": "[4]; A549, 3.6 μM", "value": "47.00 ± 0.01", "unit": "%"}, {"measurement": "IC50", "setting": "[5]; 24 hours", "value": 1.72, "unit": "µM"}, {"measurement": "IC50", "setting": "[5]; 72 hours", "value": 1.87, "unit": "µM"}, {"measurement": "cells migrated, % of the cell-free area (scratch closure)", "setting": "[6]; 1 μM", "value": "approximately 57%"}, {"measurement": "cells migrated, % of the cell-free area (scratch closure)", "setting": "[6]; 3 μM", "value": "~54", "unit": "%"}, {"measurement": "cells migrated, % of the cell-free area (scratch closure)", "setting": "[6]; 10 μM", "value": "~49", "unit": "%"}, {"measurement": "cells migrated, % of the cell-free area (scratch closure)", "setting": "[6]; 30 μM", "value": "~28", "unit": "%"}, {"measurement": "effect on cell migration rate", "setting": "[6]; 1-30 μM, 0-12 h", "value": "slowed down the cell migration rate in a concentration-dependent manner"}]}
{"smiles": "C1=CC2C3C=CC(C3)C2C1.F[P-](F)(F)(F)(F)F.S=C([S][Pt+])N(Cc1ccccc1)Cc1ccccc1", "note": "[Complex 3]", "values": [{"measurement": "change in cytotoxicity with longer exposure time", "setting": "[2]; A549, 24 vs 72 hours", "value": "a decrease in cytotoxicity was observed with longer exposure time"}, {"measurement": "IC50", "setting": "[2]; A549, 24 hours", "value": 3.31, "unit": "µM"}, {"measurement": "IC50", "setting": "[2]; A549, 72 hours", "value": 7.83, "unit": "µM"}, {"measurement": "change in cytotoxicity with longer exposure time", "setting": "[5]; 24 vs 72 hours", "value": "a decrease in cytotoxicity was observed with longer exposure time"}, {"measurement": "IC50", "setting": "[5]; 24 hours", "value": 3.18, "unit": "µM"}, {"measurement": "IC50", "setting": "[5]; 72 hours", "value": 11.4, "unit": "µM"}]}
{"smiles": "C1=CC2C3C=CC(C3)C2C1.CCN(CC)C(=S)[S][Pt+].F[P-](F)(F)(F)(F)F", "note": "(centres unmarked) [Complex 2]", "values": [{"measurement": "IC50", "setting": "[2]; A549, 24 hours", "value": 7.61, "unit": "µM"}, {"measurement": "IC50", "setting": "[2]; A549, 72 hours", "value": 3.37, "unit": "µM"}, {"measurement": "Percent (%) release of LDH", "setting": "[3]; 0.9 μM", "value": "45.52 ± 0.001", "unit": "%"}, {"measurement": "Percent (%) release of LDH", "setting": "[3]; 1.8 μM", "value": "68.19 ± 0.04", "unit": "%"}, {"measurement": "Percent (%) release of LDH", "setting": "[3]; 3.6 μM", "value": "94.13 ± 0.05", "unit": "%"}, {"measurement": "Percent (%) release of LDH", "setting": "[4]; A549, 0.9 μM", "value": "32.18 ± 0.004", "unit": "%"}, {"measurement": "Percent (%) release of LDH", "setting": "[4]; A549, 1.8 μM", "value": "41.05 ± 0.01", "unit": "%"}, {"measurement": "Percent (%) release of LDH", "setting": "[4]; A549, 3.6 μM", "value": "44.85 ± 0.01", "unit": "%"}, {"measurement": "IC50", "setting": "[5]; 24 hours", "value": 6.1, "unit": "µM"}, {"measurement": "IC50", "setting": "[5]; 72 hours", "value": 3.52, "unit": "µM"}]}
{"smiles": "N.N.[Cl][Pt][Cl]", "note": "[Cisplatin, reference compound]", "values": [{"measurement": "IC50", "setting": "[2]; A549, 24 hours", "value": "> 30", "unit": "µM"}, {"measurement": "IC50", "setting": "[2]; A549, 72 hours", "value": "> 30", "unit": "µM"}, {"measurement": "IC50", "setting": "[5]; 24 hours", "value": "> 30", "unit": "µM"}, {"measurement": "IC50", "setting": "[5]; 72 hours", "value": "> 30", "unit": "µM"}]}
